Reference: patent US20060040861A1, “Method of treating, preventing, and diagnosing prostate cancer” (priority 2004, published 2006)

How the values were obtained:
Type in all cases: cell-based, human
DU145 cells [1] = experiment: MTT assay (cell growth / viability); details: 0-1.92 μg/ml, 5 days
Method: (§1) DU145 (1×10^3/well), PC-3 (1×10^3/well) and LNCaP-FGC (1.5×10^3/well) cells were seeded in 96-well plates 24 hours prior to serum starvation. Cells were starved of serum for 24 hours and then incubated in the serum-free medium with or without 12.5 μg/ml leptin for 5 days. 3-(4,5-dimethylthiazol-2-yl)-2,5-diphenyl tetrazolium bromide (MTT) was added to each well to a concentration of 0.5 mg/ml. After 3-hour incubation at 37° C., cells were lysed in 50% dimethylformamide and 20% SDS at 37° C. Optical densities (O.D.) at 550 nm and 670 nm were measured by a plate reader, and differential O.D. between 550 nm and 670 nm (O.D. 550 nm minus O.D. 670 nm) were determined. Each experiment was performed in quadruplicate, and the values are reported as mean±SD.
(§2) DU145 (0.5-1.0×10^3/well), PC-3 (0.5-1.0×10^3/well), and LNCaP FGC (0.75-1.5×10^3/well) cells were seeded in 96-well plates 24 hours prior to serum starvation. Cells were starved of serum for 24 hours and then incubated in the serum-free medium with or without cytokine(s), DHT and/or doxorubicin at indicated concentrations for 5 days. MTT was added to each well to a concentration of 0.5 mg/ml. After being incubated at 37° C. for 3 hours, cells were lysed in 50% dimethylformamide and 20% SDS at 37° C. Optical densities (OD) at 550 and 670 nm were measured by a plate reader, and differential OD between 550 and 670 nm (OD 550 minus OD 670 nm) were determined. Each experiment was performed in quadruplicate, and the values were reported as mean±S.D.
Sucrose gradients were set up in 2.2-ml centrifuge tubes (Beckman Coulter, Inc., Fullerton, Calif.) by layering 5, 10, 15 and 20% (w/v) sucrose in velocity sedimentation buffer (10 mM HEPES, pH 8; 125 mM NaCl). Gradients were then equilibrated overnight at 4° C. Twenty micrograms of f-adiponectin in 200 μl of velocity sedimentation buffer containing 5 μl of HMW-Native protein marker kit (GE Healthcare, Piscataway, N.J.) set to 0.5 μg/μl albumin was overlayed onto the sucrose gradients and spun in a Beckman TLS-55 rotor at 55,000 rpm for 5 hours at 4° C. Fractions (150 μl each) were sequentially collected from the top to the bottom; aliquots were removed and used immediately in the MTT assay. The remaining material was stored at −80° C. for Western blot analysis with anti-adiponectin antibody and SDS-PAGE with silver staining. For the MTT assay, DU145 cells (0.5×1 03/well) were serum-starved and incubated in triplicate in 60 μl of the serum-free medium plus 30 μl of each fraction. For Western blot analysis, 0.5 μl of each fraction was electrophoresed on a 10% SDS-polyacrylamide gel and electrotransferred to a polyvinylidene difluoride membrane. The membrane was washed, blocked, and hybridized with the anti-adiponectin antibody. Bands were visualized using a Lumiglo reagent (Cell Signaling Technology, Inc., Beverly, Mass.). For SDS-PAGE, 20 μl of each fraction was electrophoresed on a 10% SDS-polyacrylamide gel, followed by silver staining using the Silver Stain kit (Bio-Rad Laboratories, Inc., Hercules, Calif.) to visualize molecular weight markers.

PC-3 cells [2] = experiment: MTT assay (cell growth / viability); details: 0-1.92 μg/ml, 5 days
Method: as §1, §2

LNCaP-FGC cells [3] = experiment: MTT assay (cell growth / viability); details: 0-1.92 μg/ml, 5 days
Method: as §1, §2

DU145 cells [4] = experiment: [3H] thymidine incorporation assay; details: DU145, serum-deprived; leptin up to 12.5 μg/ml, IL-6 100 ng/ml or IGF-I 100 ng/ml; 20 hours
Method: (§3) DU145 (1.5×10^5/well), PC-3 (1.0×10^5/well) and LNCaP-FGC (2.0×10^5/well) cells were seeded into 24-well plates 24 hours before serum-starvation. Cells were deprived of serum for 48 hours, followed by incubation with leptin at indicated concentrations or 100 ng/ml IL-6 for 20 hours. In some experiments, cells were pretreated with SP600125 prior to cytokine stimulation as described below. Cells in each well were pulsed with 1 μCi of [^3H] thymidine (Amersham Pharmacia Biotech Inc., Piscataway, N.J., USA) during the final 5 hours, washed once with PBS, fixed with cold 5% trichloroacetic acid, solubilized with 0.25 M NaOH, and counted in scintillant. Each experiment was performed in quadruplicate, and the values are reported as mean±SD.
(§4) SP600125 was dissolved in DMSO to make a stock solution. Eighty-percent confluent prostate cancer cells were serum-starved for 24 hours and pretreated with SP600125 at indicated concentrations for 30 minutes, followed by leptin treatment (12.5 μg/ml): 15 minutes for Western blot analysis or 20 hours for thymidine incorporation assays. DMSO-treated cells were employed as controls.

PC-3 cells [5] = experiment: [3H] thymidine incorporation assay; details: PC-3, serum-deprived; leptin up to 12.5 μg/ml, IL-6 100 ng/ml or IGF-I 100 ng/ml; 20 hours
Method: as §3, §4

LNCaP-FGC cells [6] = experiment: [3H] thymidine incorporation assay; details: serum-deprived, leptin up to 12.5 μg/ml, IL-6 100 ng/ml or IGF-I 100 ng/ml, 20 hours
Method: as §3

Compound	cell growth (MTT), doxorubicin alone (DU145 cells [1])	cell growth (MTT), doxorubicin alone (PC-3 cells [2])	cell growth (MTT), doxorubicin alone (LNCaP-FGC cells [3])	[3H] thymidine incorporation (cell proliferation), cytokine alone (DU145 cells [4])	[3H] thymidine incorporation (cell proliferation), cytokine alone (PC-3 cells [5])	[3H] thymidine incorporation (cell proliferation), cytokine alone (LNCaP-FGC cells [6])
COc1cccc2c1C(=O)c1c(O)c3c(c(O)c1C2=O)C[C@@](O)(C(=O)CO)C[C@@H]3O[C@H]1C[C@H](N)[C@H](O)[C@H](C)O1 [doxorubicin, reference compound]	suppressed cell growth in a dose-dependent manner	suppressed cell growth in a dose-dependent manner	suppressed cell growth in a dose-dependent manner			
IGF-I: Recombinant human IGF-I from R&D Systems; adipose cytokine				augmented cell proliferation	augmented cell proliferation	did not affect
IL-6: Recombinant human IL-6 purchased from R&D Systems; adipose cytokine				stimulated cell proliferation	stimulated cell proliferation	inhibited
